Laboratory results: patent publication US9018188B2, “MicroRNA inhibitors” (Ottawa Hospital Research Institute, priority 2011, dated 2015)

Columns and labels:
TA muscles = assay: High-resolution respirometry on TA muscles after ASO treatment; assay type: in vivo, mouse
Description: To quantify bioenergetic effects of miR-133 ASO induced BAT in muscle, Applicant performed high-resolution respirometry on TA muscles after 2 months of either control- or miR-133 ASO treatment (C57BL/6 male fed on RD, n=6 in each treatment group). […] This marked difference in the response to FA is consistent with reported acute activation of mitochondrial respiration rates in brown adipocytes exposed to fatty acids (Matthias et al., 2000).
Surgically extracted tibialis anterior (TA) and contralateral soleus (SOL) muscles were immediately placed in ice-cold biopsy preservation solution (BIOPS) containing […], 7.23 mM K2EGTA buffer, 0.1 μM free calcium, 20 mM imidazole, 20 mM taurine, 50 mM 2-(N-Morpholino)ethanesulfonic acid hydrate (K-MES), 0.5 mM dithiothreitol (DTT), 6.56 mM […], 5.77 mM ATP, and 15 mM phosphocreatine (pH 7.1). The TA muscle was cut longitudinally into 4 equal parts, 2 of which were assessed by respirometry as intact cells and 2 after chemical permeabilization of the sarcolemma. The SOL muscle was cut in half longitudinally and both sections were permeabilized before respirometry. Prior to permeabilization muscle samples were gently dissected with two pairs of sharp forceps, achieving a high degree of fibre separation verified microscopically. Chemical permeabilization was achieved by incubation of the fibres with saponin (50 μg/mL) in 2 mL of BIOPS for 30 minutes at 4° C. (Gnaiger, 2009b). Permeabilized samples were then rinsed with a mitochondrial respiration medium (MiR05) containing 0.5 mM EGTA, 3 mM MgCl2.6H2O, 60 mM K-lactobionate, 20 mM taurine, 10 mM KH2PO4, 20 mM HEPES, 110 mM sucrose, and 1 g/L bovine serum albumin (pH 7.1).
Muscle bundles (both intact TA, and permeabilized TA and SOL) were blotted and measured for wet weight in a balance controlled for constant relative humidity, providing hydration consistency and stability of weight measurements. Each sample was then placed into a single chamber of the high-resolution Oroboros Oxygraph-2k (Oroboros, Innsbruck, Austria) containing MiR05 solution and measured at 37° C. The Oxygraph is a two-chamber titration-injection respirometer with an oxygen detection limit of up to 0.5 pmol·sec^−1·mL^−1. Standardized instrumental calibrations were performed to correct for back-diffusion of oxygen into the chamber from the various components, leak from the exterior, and sensor oxygen consumption. Oxygen flux was resolved by software allowing nonlinear changes in the negative time derivative of the oxygen concentration signal (Oxygraph 2k, Oroboros, Innsbruck, Austria).
Leak respiration was induced with the addition of malate (2 mM) and octanoyl carnitine (0.2 mM). This state represents the oxygen consumption of an unaltered and intact electron transport system (ETS) without the exogenous provision of adenylates. In the LN state, the chemiosmotic gradient is at maximum and oxygen flux represents proton leak, slip, and cation cycling in muscle (Pesta and Gnaiger, 2011) and maximal respiration in BAT induced by fatty acids (Matthias et al. 2000). Further uncoupling of the ETS in muscle cells was assessed with the proton ionophore, carbonyl cyanide p-(trifluoromethoxy) phenylhydrazone (FCCP; 0.7 μM per titration up to concentrations ranging from 2.5-4 μM) to achieve a maximal uncoupling response.
Leak respiration in the absence of adenylates (LN) was induced with the addition of malate (2 mM) and octanoyl carnitine (0.2 mM). Lipid oxidative phosphorylation capacity (PETF) and maximal electron flow through electron transferring-flavoprotein (ETF) was determined following the addition of ADP (5 mM). […]

Ucp1 = assay: UCP1 immunoblot in inguinal and epididymal white adipose tissues; assay type: in vivo, mouse
Protocol: Normalized UCP1 levels were calculated based on the densitometry analysis of the UCP1 immunoblot and the α-Tubulin immunoblot. The interscapular brown adipose tissue (iBAT) were included as a control. Asterisk denotes the loading of the iBAT lanes on the UCP1 immunoblot was 1/100 of other lanes to avoid overloading. (B) Immunohistochemistry (IHC) of UCP1 protein reveal miR-133 antagonism induced beige adipocytes within inguinal and epididymal white adipose tissues. […] Error bars: S.E.M., asterisk: significant pair-wise comparison by t-test, *: p≦0.05, **: p≦0.01, ***: p≦0.001.
The following antibodies and dilutions were used: anti-Prdm16 antibody (generated in Dr. Patrick Seale's laboratory), 1:5,000 dilution; anti-Perilipin A antibody (Vala Sciences), 1:5,000 dilution; anti-Ucp1 antibody (Ab10983, Abeam), 1:1,000 dilution (FIGS. 4B, 5A, 7A); anti-Ucp1 antibody (Calbiochem), 1:1,000 dilution (FIG. 8C); anti-Ucp3 antibody (Ab3477, Abeam), 1:1,000 dilution; anti-Pgc1α antibody (Abeam), 1:1,000 dilution; anti-pan myosin heavy chain (MyHC) antibody (Developmental Studies Hybridoma Bank), 1:500; anti-DsRed (tdTomato) antibody (Ablab), 1:500; anti-α-Tubulin antibody (Sigma-Aldrich), 1:10,000 dilution.

Substance: *mA*mUmAmGmCmUmGmGmUmUmGmAmAmGmGmGmGmAmC*mC*mA*mA*mAChl [miR-133 ASO]
- additional energy expenditure in the treated TA muscle from uncoupling respiration (TA muscles; by calculation): 0.3 cal/h/mg
- higher respiration rate versus control (TA muscles; intact TA muscle with FA): 1.75 fold
- mitochondrial respiration rate after titration of FA (octanoyl carnitine), uncoupled/intact cells (TA muscles; intact TA muscle, 2 months after treatment, C57BL/6 male on RD, n=6): 13.5±1 pmol·sec^−1·lo^−1
- respiration rate in response to ADP (state-3 respiration mediated by ETF) (TA muscles; permeabilized TA muscle): unchanged
- state 3 respiration rates with complex I+II substrates (P I+II) versus control (TA muscles; permeabilized TA muscle, addition of succinate): no difference
- electron transport through complex I (NADH dehydrogenase) respiration rate (TA muscles; permeabilized TA muscle, after titration of glutamate, p=0.2 versus control): 33±3 pmol·sec^−1lo^−1
- effect on UCP1 in white adipose tissues (Ucp1; C57BL/6 mice fed with a high fat diet (HFD)): not present
- UCP1 in inguinal and epididymal white adipose tissues (Ucp1; C57BL/6 mice fed with a regular diet (RD), CTX): increase
